# The source made the active and inactive calls. No cut-off for these calls is given here.
# Legend:
# [1] = Drug uptake in human SVG p12 cells at 10 uM incubated for 8 hrs by DAPI staining based immunofluorescence analysis; type: ADME, cell-based; settings: svg p12, 8 h
# DNA [2] = assay: Binding affinity to DNA (unknown origin) assessed as intercalation by measuring hypsochromic shift at 100 uM by UV-Vis absorption spectra; type: nucleic-acid assay
# [3] = Drug uptake in human T98G cells at 10 uM incubated for 8 hrs by DAPI staining based immunofluorescence analysis; type: ADME, cell-based
# A 172 [4] = assay: Induction of DNA damage in human A-172 cells at 10 uM incubated for 24 hrs by TUNEL assay; type: functional, cell-based
# A 172 [5] = assay: Induction of apoptosis in human A-172 cells assessed as apoptotic rate at 10 uM incubated for 24 hrs by TUNEL assay relative to control; type: functional
# T98G [6] = assay: Induction of apoptosis in human T98G cells assessed as apoptotic rate at 10 uM incubated for 24 hrs by TUNEL assay relative to control; type: functional
# T98G [7] = assay: Cytotoxicity against human T98G cells assessed as reduction in cell viability at 10 uM glucose deprived for 8 hrs followed by compound addition and measured after 48 hrs by MTT assay relative to control; type: functional, cell-based
# T98G [8] = assay: Cytotoxicity against human T98G cells assessed as reduction in cell viability at 10 uM glucose deprived for 8 hrs followed by compound addition and measured after 24 hrs by MTT assay relative to control; type: functional, cell-based
# [9] = Stability of compound at pH 2 measured after 24 hrs by HPLC analysis; type: physicochemical; settings: buffer, pH 2, 24 h
# [10] = Drug uptake in human A-172 cells assessed as red appearance incubated for 24 hrs by imaging analysis; type: ADME, cell-based; settings: a 172, 24 h
# T98G [11] = assay: Induction of DNA damage in human T98G cells at 10 uM incubated for 24 hrs by TUNEL assay; type: functional, cell-based
# [12] = Stability of compound in T98G GBM cell culture media at pH 6.8 measured after 72 hrs by HPLC analysis; type: physicochemical; settings: pH 6.8, 72 h
# [13] = Stability of compound at pH 5.0 incubated for 72 hrs by HPLC analysis; type: physicochemical; settings: buffer, pH 5, 72 h
# T98G [14] = assay: Cytotoxicity against human T98G cells assessed as reduction in cell viability at 10 uM incubated for 48 hrs by MTT assay; type: functional, cell-based
# A 172 [15] = assay: Cytotoxicity against human A-172 cells assessed as reduction in cell viability at 10 uM glucose deprived for 8 hrs followed by compound addition and measured after 24 to 48 hrs by MTT assay relative to control; type: functional, cell-based; settings: time 24-48 hrs
# A 172 [16] = assay: Cytotoxicity against human A-172 cells assessed as reduction in cell viability at 10 uM incubated for 24 to 48 hrs by MTT assay; type: functional, cell-based; settings: time 24-48 hrs
# [17] = Stability of compound at pH 2 assessed as drug hydrolysis measured after 72 hrs by HPLC analysis; type: physicochemical; settings: buffer, read-out: Drug degradation
# [18] = Stability of compound at pH 7.4 incubated for 72 hrs by HPLC analysis; type: physicochemical; settings: buffer, pH 7.4, 72 h
# [19] = Cytotoxicity against human T98G cells co-cultured with MDCK-II cells transfected with human P-gp assessed as cell viability at 100 uM pretreated for 2 hrs followed by […] cell removal and measured after 48 hrs by MTT assay relative to control; type: functional; settings: time 50 hrs, read-out: Activity
# [20] = Drug uptake in human T98G cells assessed as red appearance incubated for 24 hrs by imaging analysis; type: ADME, cell-based
# A 172 [21] = assay: Cytotoxicity against human A-172 cells co-cultured with MDCK-II cells transfected with human P-gp assessed as cell viability at 100 uM pretreated for 2 hrs followed by […] cell removal and measured after 48 hrs by MTT assay relative to control; type: functional; settings: time 50 hrs, read-out: Activity
# DNA [22] = assay: Binding affinity to DNA (unknown origin) assessed as Stem-Volmer quenching constant by fluorescence spectral analysis; type: nucleic-acid assay
# T98G [23] = assay: Cytotoxicity against human T98G cells assessed as cell viability at 10 uM incubated for 24 hrs by MTT assay relative to control; type: functional
# [24] = Stability of compound at pH 3.5 incubated for 72 hrs by HPLC analysis; type: physicochemical; settings: buffer, pH 3.5, 72 h
# [25] = Drug uptake in human A-172 cells at 10 uM incubated for 8 hrs by DAPI staining based immunofluorescence analysis; type: ADME, cell-based; settings: a 172, 8 h
# [26] = Cytotoxicity against human SVG p12 cells assessed as reduction in cell viability at 10 uM incubated for 24 to 48 hrs by MTT assay; type: toxicity, cell-based; settings: svg p12, 10 µM, time 24-48 hrs
# DNA [27] = assay: Binding affinity to DNA (unknown origin) assessed as intercalative binding constant (Ka) by UV-Vis absorption spectra; type: nucleic-acid assay
Drug uptake [1],Activity (DNA [2]),Drug uptake [3],Stability [9],Drug uptake [10],Stability [12],Stability [13],KSV (DNA [22]),Drug uptake [25],K (DNA [27]),SMILES,Activity (A 172 [4]),Activity (A 172 [5]),Activity (T98G [6]),Activity (T98G [7]),Activity (T98G [8]),Activity (T98G [11]),Activity (A 172 [15]),Activity (A 172 [16]),viability at 100 µM [19],viability at 100 µM (A 172 [21]),further results
Active,Active,Active,Unstable,Active,Stable,Stable,3.5 10^5/M,Active,2.7 10^5/M,COc1cccc2c1C(=O)c1c(O)c3c(c(O)c1C2=O)C[C@@](O)(/C(CO)=N\OCC(=O)NCc1cn(C[C@H]2O[C@H](OC)[C@H](O)[C@@H](O)[C@@H]2O)nn1)C[C@@H]3O[C@H]1C[C@H](N)[C@H](O)[C@H](C)O1,Active,202%,116%,Active,inactive,Active,Active,Active,62%,58%,Activity (T98G [14]): Active; degraded at 72 h [17]: 49%; Stability [18]: Stable; Drug uptake [20]: Active; viability at 10 µM (T98G [23]; read-out: Activity): 80%; Stability [24]: Stable; Activity [26]: Non-Toxic
Active,,Active,,,,,3.1 10^5/M,Active,3.3 10^5/M,COc1cccc2c1C(=O)c1c(O)c3c(c(O)c1C2=O)C[C@@](O)(C(=O)CO)C[C@@H]3O[C@H]1C[C@H](N)[C@H](O)[C@H](C)O1 [DOXORUBICIN],Active,102%,122%,Active,inactive,Active,Active,Active,73%,94%,Activity (T98G [23]): inactive; Activity [26]: Toxic
Not Active,Active,Not Active,Unstable,Not Active,Stable,Stable,4.4 10^5/M,Not Active,3.5 10^5/M,COc1cccc2c1C(=O)c1c(O)c3c(c(O)c1C2=O)C[C@@](O)(/C(CO)=N\OCC(=O)NC[C@H]1O[C@H](OC)[C@H](O)[C@@H](O)[C@@H]1O)C[C@@H]3O[C@H]1C[C@H](N)[C@H](O)[C@H](C)O1,,32%,inactive,inactive,inactive,inactive,Active,Active,76%,129%,degraded at 72 h [17]: 46%; Stability [18]: Stable; Drug uptake [20]: Not Active; Stability [24]: Stable

# Reference: ChEMBL document CHEMBL6071195, “Oxime Linked Doxorubicin Glycoconjugates Improve the Specific Targeting of Glioblastoma in High-Grade Glioma Therapy” (ACS Med Chem Lett, 2024)
